System: M. smegmatis expressing wildtype PknG
Assay type: cell-based, Mycobacterium smegmatis
Settings: 10 μM compound, RAW cells, 24 h postinfection; mutant or vector control cleared up to 85%, wild type pknG only 25%

Q: Which “clearance of PknG expressing M. smegmatis in macrophages” value does the source give for `NC(=O)c1c(NC(=O)C2CC2)sc2c1CCCC2` [Compound 237, 2-(Cyclopropanecarbonyl-amino)-4,5,6,7-tetrahydro-benzo[b]thiophene-3-carboxylic acid amide] here?
A: The value was “as efficient as observed with the mutant or vector control transformants”.

Reference: US20090018149A1, “4,5,6,7-tetrahydrobenzo[b]thiophene derivatives and methods for medical intervention against mycobacterial infections” (priority 2002, published 2009)
